The record followed here is patent US9359358B2, “Cyclohexyl azetidine derivatives as JAK inhibitors” (Incyte Holdings Corporation, priority 2011, dated 2016).

Structures can show the parent of a compound that is named as a salt.

The IC50 is the point on the concentration scale where inhibition reaches its midpoint. A lower IC50 goes with greater potency in that assay.

The target of one assay is T1, human JAK1 (Homo sapiens, UniProt P23458).
T1 construct: human JAK1 (a.a. 837-1142); His tag (N); made in house; host or cells: insect cells (baculovirus)
The assay can be described thus: In Vitro JAK Kinase Assay (HTRF, phosphorylation of a biotinylated peptide), JAK1. Type of assay: biochemical. The following applies: catalytic domain a.a. 837-1142, assay of Example A. An outline of the steps:
(§1)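 HTRF detection (SA-APC plus Eu-labeled anti-phosphotyrosine Py20, 40 min after EDTA stop) quantified biotinylated-peptide phosphorylation. Kinase reactions with human JAK1 or JAK2 catalytic domains lasted 1 h at room temperature.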
(In general: In TR-FRET formats the signal depends on donor and acceptor labels being close together.)

A further assay addresses T2, human JAK2 (Homo sapiens, UniProt O60674).
T2 construct: JAK2 (a.a. 828-1132); His tag (N); made in house; host or cells: insect cells (baculovirus)
The assay can be described thus: In Vitro JAK Kinase Assay (HTRF, phosphorylation of a biotinylated peptide), JAK2. Type of assay: biochemical. The conditions noted are these: assay of Example A. Summed up: as §1

T2 sequence (O60674 828-1132): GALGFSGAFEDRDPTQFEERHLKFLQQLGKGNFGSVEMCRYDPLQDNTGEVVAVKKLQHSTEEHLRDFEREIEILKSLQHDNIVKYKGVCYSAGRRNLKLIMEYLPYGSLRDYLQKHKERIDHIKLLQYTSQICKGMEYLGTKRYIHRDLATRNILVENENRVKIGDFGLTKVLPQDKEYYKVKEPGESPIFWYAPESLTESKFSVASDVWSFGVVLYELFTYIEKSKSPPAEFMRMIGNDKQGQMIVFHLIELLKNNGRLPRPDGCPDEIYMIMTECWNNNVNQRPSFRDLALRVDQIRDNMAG
T1 sequence (P23458 849-1154): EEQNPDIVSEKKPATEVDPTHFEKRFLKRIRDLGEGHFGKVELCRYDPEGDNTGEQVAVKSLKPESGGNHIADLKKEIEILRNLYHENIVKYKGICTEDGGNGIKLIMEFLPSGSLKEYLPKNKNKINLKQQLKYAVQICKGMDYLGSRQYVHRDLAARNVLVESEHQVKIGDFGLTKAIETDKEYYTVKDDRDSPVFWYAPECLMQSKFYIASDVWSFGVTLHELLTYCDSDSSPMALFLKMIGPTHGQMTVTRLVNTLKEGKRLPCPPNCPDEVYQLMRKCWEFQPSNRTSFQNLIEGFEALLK

`CCN(C)C(=O)c1cc(O[C@H]2CC[C@@H](N3CC(CC#N)(n4cc(-c5ncnc6[nH]ccc56)cn4)C3)CC2)nc(C(F)(F)F)n1` [Example 48, 6-[(cis-4-{3-(cyanomethyl)-3-[4-(7H-pyrrolo[2,3-d]pyrimidin-4-yl)-1H-pyrazol-1-yl]azetidin-1-yl}cyclohexyl)oxy]-N-ethyl-N-methyl-2-(trifluoromethyl)pyrimidine-4-carboxamide bis(trifluoroacetate)] registered an IC50 against human JAK1 (Table 4) below 10 nM. The “JAK2/JAK1 IC50 ratio” value at human JAK2 (Table 4) is “≧10”.

For `CCNC(=O)c1cc(O[C@H]2CC[C@@H](N3CC(CC#N)(n4cc(-c5ncnc6[nH]ccc56)cn4)C3)CC2)nc(C(F)(F)F)n1` [Example 49, 6-[(cis-4-{3-(cyanomethyl)-3-[4-(7H-pyrrolo[2,3-d]pyrimidin-4-yl)-1H-pyrazol-1-yl]azetidin-1-yl}cyclohexyl)oxy]-N-ethyl-2-(trifluoromethyl)pyrimidine-4-carboxamide bis(trifluoroacetate)], the IC50 at human JAK1 (Table 4) is below 10 nM. Also, the “JAK2/JAK1 IC50 ratio” value on human JAK2 (Table 4) is recorded as “≧10”.

`COCCNC(=O)c1cc(O[C@H]2CC[C@@H](N3CC(CC#N)(n4cc(-c5ncnc6[nH]ccc56)cn4)C3)CC2)nc(C(F)(F)F)n1` [Example 50, 6-[(cis-4-{3-(cyanomethyl)-3-[4-(7H-pyrrolo[2,3-d]pyrimidin-4-yl)-1H-pyrazol-1-yl]azetidin-1-yl}cyclohexyl)oxy]-N-(2-methoxyethyl)-2-(trifluoromethyl)pyrimidine-4-carboxamide bis(trifluoroacetate)] returned an IC50 against human JAK1 (Table 4) below 10 nM. In addition, the “JAK2/JAK1 IC50 ratio” value on human JAK2 (Table 4) is “≧10”.

`N#CCC1(n2cc(-c3ncnc4[nH]ccc34)cn2)CN([C@H]2CC[C@@H](Oc3cc(C(=O)N4CCCC4)nc(C(F)(F)F)n3)CC2)C1` [Example 51, {1-(cis-4-{[6-(pyrrolidin-1-ylcarbonyl)-2-(trifluoromethyl)pyrimidin-4-yl]oxy}cyclohexyl)-3-[4-(7H-pyrrolo[2,3-d]pyrimidin-4-yl)-1H-pyrazol-1-yl]azetidin-3-yl}acetonitrile bis(trifluoroacetate)]: the IC50 against human JAK1 (Table 4) was below 10 nM. The “JAK2/JAK1 IC50 ratio” value on human JAK2 (Table 4) is recorded as “≧10”.

The compound `CC(C)(CO)NCc1cc(O[C@H]2CC[C@@H](N3CC(CC#N)(n4cc(-c5ncnc6[nH]ccc56)cn4)C3)CC2)nc(C(F)(F)F)n1.O=C(O)C(F)(F)F.O=C(O)C(F)(F)F.O=C(O)C(F)(F)F.O=C(O)C(F)(F)F` [Example 52, {1-(cis-4-{[6-{[(2-hydroxy-1,1-dimethylethyl)amino]methyl}-2-(trifluoromethyl)pyrimidin-4-yl]oxy}cyclohexyl)-3-[4-(7H-pyrrolo[2,3-d]pyrimidin-4-yl)-1H-pyrazol-1-yl]azetidin-3-yl}acetonitrile tetrakis(trifluoroacetate) (salt)] came in with an IC50 at human JAK1 (Table 4) below 10 nM. In addition, the “JAK2/JAK1 IC50 ratio” value at human JAK2 (Table 4) was “≧10”.

In turn, `CC1(NCc2cc(O[C@H]3CC[C@@H](N4CC(CC#N)(n5cc(-c6ncnc7[nH]ccc67)cn5)C4)CC3)nc(C(F)(F)F)n2)CC1.O=C(O)C(F)(F)F.O=C(O)C(F)(F)F.O=C(O)C(F)(F)F` [Example 53, {1-(cis-4-{[6-{[(1-methylcyclopropyl)amino]methyl}-2-(trifluoromethyl)pyrimidin-4-yl]oxy}cyclohexyl)-3-[4-(7H-pyrrolo[2,3-d]pyrimidin-4-yl)-1H-pyrazol-1-yl]azetidin-3-yl}acetonitrile tris(trifluoroacetate)] came in with an IC50 on human JAK1 (Table 4) below 10 nM. At human JAK2 (Table 4), the “JAK2/JAK1 IC50 ratio” value was “≧10”.

On human JAK1 (Table 4), `N#CCC1(n2cc(-c3ncnc4[nH]ccc34)cn2)CN([C@H]2CC[C@@H](Oc3cc(C#N)nc(C(F)(F)F)n3)CC2)C1` [Example 54, 6-[(cis-4-{3-(cyanomethyl)-3-[4-(7H-pyrrolo[2,3-d]pyrimidin-4-yl)-1H-pyrazol-1-yl]azetidin-1-yl}cyclohexyl)oxy]-2-(trifluoromethyl)pyrimidine-4-carbonitrile bis(trifluoroacetate)] displayed an IC50 below 10 nM. For the same compound, on human JAK2 (Table 4), the “JAK2/JAK1 IC50 ratio” value was “≧10”.

Turning to `N#CCC1(n2cc(-c3ncnc4[nH]ccc34)cn2)CN([C@H]2CC[C@@H](Oc3cc(OCCO)nc(C(F)(F)F)n3)CC2)C1` [Example 56, {1-(cis-4-{[6-(2-hydroxyethoxy)-2-(trifluoromethyl)pyrimidin-4-yl]oxy}cyclohexyl)-3-[4-(7H-pyrrolo[2,3-d]pyrimidin-4-yl)-1H-pyrazol-1-yl]azetidin-3-yl}acetonitrile bis(trifluoroacetate) (salt)], the IC50 at human JAK1 (Table 4) was below 10 nM. Besides, at human JAK2 (Table 4), the “JAK2/JAK1 IC50 ratio” value is “≧10”.

The compound `N#CCC1(n2cc(-c3ncnc4[nH]ccc34)cn2)CN([C@H]2CC[C@@H](Oc3cc(CCF)nc(C(F)(F)F)n3)CC2)C1` [Example 60, {1-(cis-4-{[6-(2-fluoro ethyl)-2-(trifluoromethyl)pyrimidin-4-yl]oxy}cyclohexyl)-3-[4-(7H-pyrrolo[2,3-d]pyrimidin-4-yl)-1H-pyrazol-1-yl]azetidin-3-yl}acetonitrile tris(trifluoroacetate)] yielded an IC50 on human JAK1 (Table 4) below 10 nM. The “JAK2/JAK1 IC50 ratio” value on human JAK2 (Table 4) was “≧10”.

As to `CC(C)(F)c1cc(O[C@H]2CC[C@@H](N3CC(CC#N)(n4cc(-c5ncnc6[nH]ccc56)cn4)C3)CC2)nc(C(F)(F)F)n1.O=C(O)C(F)(F)F.O=C(O)C(F)(F)F` [Example 61, {1-(cis-4-{[6-(1-fluoro-1-methylethyl)-2-(trifluoromethyl)pyrimidin-4-yl]oxy}cyclohexyl)-3-[4-(7H-pyrrolo[2,3-d]pyrimidin-4-yl)-1H-pyrazol-1-yl]azetidin-3-yl}acetonitrile bis(trifluoroacetate)], the IC50 against human JAK1 (Table 4) is below 10 nM. On human JAK2 (Table 4), the “JAK2/JAK1 IC50 ratio” value was “≧10”.

`CC(C)(CO)c1cc(O[C@H]2CC[C@@H](N3CC(CC#N)(n4cc(-c5ncnc6[nH]ccc56)cn4)C3)CC2)nc(C(F)(F)F)n1` [Example 62, {1-(cis-4-{[6-(2-hydroxy-1,1-dimethylethyl)-2-(trifluoromethyl)pyrimidin-4-yl]oxy}cyclohexyl)-3-[4-(7H-pyrrolo[2,3-d]pyrimidin-4-yl)-1H-pyrazol-1-yl]azetidin-3-yl}acetonitrile tris(trifluoroacetate) (salt)] returned an IC50 against human JAK1 (Table 4) below 10 nM. Further, the “JAK2/JAK1 IC50 ratio” value at human JAK2 (Table 4) is recorded as “≧10”.

The compound `N#CCC1(n2cc(-c3ncnc4[nH]ccc34)cn2)CN([C@H]2CC[C@@H](Oc3cc(C4(CO)CC4)nc(C(F)(F)F)n3)CC2)C1` [Example 63, {1-(cis-4-{[6-[1-(hydroxymethyl)cyclopropyl]-2-(trifluoromethyl)pyrimidin-4-yl]oxy}cyclohexyl)-3-[4-(7H-pyrrolo[2,3-d]pyrimidin-4-yl)-1H-pyrazol-1-yl]azetidin-3-yl}acetonitrile bis(trifluoroacetate) (salt)] displayed an IC50 on human JAK1 (Table 4) below 10 nM. The “JAK2/JAK1 IC50 ratio” value at human JAK2 (Table 4) is “≧10”.

For `N#CCC1(n2cc(-c3ncnc4[nH]ccc34)cn2)CN([C@H]2CC[C@@H](Oc3cc(CO)cc(C(F)(F)F)n3)CC2)C1` [Example 64, {1-(cis-4-{[4-(hydroxymethyl)-6-(trifluoromethyl)pyridin-2-yl]oxy}cyclohexyl)-3-[4-(7H-pyrrolo[2,3-d]pyrimidin-4-yl)-1H-pyrazol-1-yl]azetidin-3-yl}acetonitrile bis(trifluoroacetate)], the IC50 against human JAK1 (Table 5) was below 10 nM. Also, the “JAK2/JAK1 IC50 ratio” value on human JAK2 (Table 5) is on record as “≧10”.

At human JAK1 (Table 5), `CCNCc1cc(O[C@H]2CC[C@@H](N3CC(CC#N)(n4cc(-c5ncnc6[nH]ccc56)cn4)C3)CC2)nc(C(F)(F)F)c1` [Example 65, {1-(cis-4-{[4-[(ethylamino)methyl]-6-(trifluoromethyl)pyridin-2-yl]oxy}cyclohexyl)-3-[4-(7H-pyrrolo[2,3-d]pyrimidin-4-yl)-1H-pyrazol-1-yl]azetidin-3-yl}acetonitrile tris(trifluoroacetate)] came in with an IC50 below 10 nM. Besides, the “JAK2/JAK1 IC50 ratio” value at human JAK2 (Table 5) is reported as “≧10”.

Consider `N#CCC1(n2cc(-c3ncnc4[nH]ccc34)cn2)CN([C@H]2CC[C@@H](Oc3cc(CN)cc(C(F)(F)F)n3)CC2)C1` [Example 66, {1-(cis-4-{[4-(aminomethyl)-6-(trifluoromethyl)pyridin-2-yl]oxy}cyclohexyl)-3-[4-(7H-pyrrolo[2,3-d]pyrimidin-4-yl)-1H-pyrazol-1-yl]azetidin-3-yl}acetonitrile tris(trifluoroacetate)], for which, at human JAK1 (Table 5), the IC50 is below 10 nM. Moreover, the “JAK2/JAK1 IC50 ratio” value at human JAK2 (Table 5) is “≧10”.

Consider `CNCc1cc(O[C@H]2CC[C@@H](N3CC(CC#N)(n4cc(-c5ncnc6[nH]ccc56)cn4)C3)CC2)nc(C(F)(F)F)c1` [Example 67, {1-(cis-4-{[4-[(methylamino)methyl]-6-(trifluoromethyl)pyridin-2-yl]oxy}cyclohexyl)-3-[4-(7H-pyrrolo[2,3-d]pyrimidin-4-yl)-1H-pyrazol-1-yl]azetidin-3-yl}acetonitrile tris(trifluoroacetate)], for which the IC50 at human JAK1 (Table 5) is below 10 nM. In addition, at human JAK2 (Table 5), the “JAK2/JAK1 IC50 ratio” value is given as “≧10”.

Turning to `CN(C)Cc1cc(O[C@H]2CC[C@@H](N3CC(CC#N)(n4cc(-c5ncnc6[nH]ccc56)cn4)C3)CC2)nc(C(F)(F)F)c1` [Example 68, {1-(cis-4-{[4-[(dimethylamino)methyl]-6-(trifluoromethyl)pyridin-2-yl]oxy}cyclohexyl)-3-[4-(7H-pyrrolo[2,3-d]pyrimidin-4-yl)-1H-pyrazol-1-yl]azetidin-3-yl}acetonitrile tris(trifluoroacetate)], the IC50 against human JAK1 (Table 5) is below 10 nM. For the same compound, at human JAK2 (Table 5), the “JAK2/JAK1 IC50 ratio” value is recorded as “≧10”.

Turning to `CC(C)(O)c1cc(O[C@H]2CC[C@@H](N3CC(CC#N)(n4cc(-c5ncnc6[nH]ccc56)cn4)C3)CC2)nc(C(F)(F)F)c1` [Example 69, {1-(cis-4-{[4-(1-hydroxy-1-methylethyl)-6-(trifluoromethyl)pyridin-2-yl]oxy}cyclohexyl)-3-[4-(7H-pyrrolo[2,3-d]pyrimidin-4-yl)-1H-pyrazol-1-yl]azetidin-3-yl}acetonitrile bis(trifluoroacetate)], the IC50 against human JAK1 (Table 5) was below 10 nM. Further, the “JAK2/JAK1 IC50 ratio” value on human JAK2 (Table 5) is reported as “≧10”.
